The values below come from patent publication US20120214847A1, “2-[1-PHENYL-5-HYDROXY-4a-SUBSTITUTED-HEXAHYDROCYCLOPENTA[F]INDAZOL-5-YL]ETHYL PHENYL DERIVATIVES AS GLUCOCORTICOID RECEPTOR LIGANDS” (Merck Sharp & Dohme Corp., priority 2009, published 2012).

pEC50: −log10 of the molar value.

The target of the test is T1, human GR (Homo sapiens, UniProt P04150).
T1 construct: naturally expresses the human GR; endogenous in cells
T1 sequence (P04150 1-777): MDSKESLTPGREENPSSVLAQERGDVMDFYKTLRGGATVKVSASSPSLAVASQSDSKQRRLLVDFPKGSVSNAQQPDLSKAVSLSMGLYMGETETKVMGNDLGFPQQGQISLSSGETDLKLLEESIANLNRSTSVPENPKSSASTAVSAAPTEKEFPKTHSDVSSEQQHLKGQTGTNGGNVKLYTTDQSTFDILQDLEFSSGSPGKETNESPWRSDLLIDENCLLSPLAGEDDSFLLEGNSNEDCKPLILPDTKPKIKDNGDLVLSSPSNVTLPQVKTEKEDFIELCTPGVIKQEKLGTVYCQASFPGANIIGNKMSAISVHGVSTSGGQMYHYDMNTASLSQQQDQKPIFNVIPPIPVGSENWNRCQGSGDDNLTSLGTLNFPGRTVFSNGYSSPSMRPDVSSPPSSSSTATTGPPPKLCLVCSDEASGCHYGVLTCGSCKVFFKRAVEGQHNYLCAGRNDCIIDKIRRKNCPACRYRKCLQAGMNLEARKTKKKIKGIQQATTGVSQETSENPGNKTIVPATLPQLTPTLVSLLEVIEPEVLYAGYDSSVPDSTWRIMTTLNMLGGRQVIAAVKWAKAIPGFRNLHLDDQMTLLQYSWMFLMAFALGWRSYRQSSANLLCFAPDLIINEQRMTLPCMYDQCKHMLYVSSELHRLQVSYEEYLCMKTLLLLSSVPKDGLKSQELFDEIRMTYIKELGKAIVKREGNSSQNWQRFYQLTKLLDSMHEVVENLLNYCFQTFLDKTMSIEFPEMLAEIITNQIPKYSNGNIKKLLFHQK
The test can be described thus: Trans-activation modulation of glucocorticoid receptor (GRAMMER), MMTV-LUC reporter in A549 cells. The note with it: for Emax: A549, A549 cells, Emax relative to the activity obtained with 300 nM dexamethasone, read-out: Transactivation A549 Cells Grammer Emax (%); for pEC50: A549 cells, IP = inflection point, read-out: Transactivation A549 Cells Grammer IP. In kind it is cell-based.

Take `Cc1ccnc(CC[C@]2(O)CCC3=Cc4c(cnn4-c4ccc(F)cc4)C[C@@]32C2CC2)c1` [Example 36, (4aR,5R)-4a-Cyclopropyl-1-(4-fluorophenyl)-5-[2-(4-methylpyridin-2-yl)ethyl]-1,4,4a,5,6,7-hexahydrocyclopenta[f]indazol-5-ol]: the Emax came to 11% and the pEC50 is 7.23.
The corresponding values for `CC[C@]12Cc3cnn(-c4ccc(F)cc4)c3C=C1CC[C@@]2(O)CCc1cccc(OC)c1C(N)=O` [Example 37, 2-{2-[(4aS,5R)-4a-Ethyl-1-(4-fluorophenyl)-5-hydroxy-1,4,4a,5,6,7-hexahydrocyclopenta[f]indazol-5-yl]ethyl}-6-methoxybenzamide] are 49% and 8.00.
Regarding `NC(=O)c1cc(F)cnc1CC[C@]1(O)CCC2=Cc3c(cnn3-c3ccc(F)cc3)C[C@@]21C1CC1` [Example 4, 2-{2-[(4aR,5R)-4a-Cyclopropyl-1-(4-fluorophenyl)-5-hydroxy-1,4,4a,5,6,7-hexahydrocyclopenta[f]indazol-5-yl]ethyl}-5-fluoropyridine-3-carboxamide], the Emax worked out at 14% and the pEC50 was 6.94.
On the same counts, the results for `NS(=O)(=O)c1ccccc1CC[C@]1(O)CCC2=Cc3c(cnn3-c3cccnc3)C[C@@]21C1CC1` [Example 24, 2-{2-[(4aR,5R)-4a-Cyclopropyl-5-hydroxy-1-(pyridin-3-yl)-1,4,4a,5,6,7-hexahydrocyclopenta[f]indazol-5-yl]ethyl}benzenesulfonamide] are 35% and 7.62.
The corresponding values for `CC[C@]12Cc3cnn(-c4cccnc4)c3C=C1CC[C@@]2(O)CCc1cccc(F)c1C(N)=O` [Example 14, 2-{2-[(4aS,5R)-4a-Ethyl-5-hydroxy-1-(pyridin-3-yl)-1,4,4a,5,6,7-hexahydrocyclopenta[f]indazol-5-yl]ethyl}-6-fluorobenzamide] are 51% and 7.06.
On to `COc1ccnc(CC[C@]2(O)CCC3=Cc4c(cnn4-c4ccc(F)cc4)C[C@@]32C2CC2)c1C(N)=O` [Example 54, 2-{2-[(4aR,5R)-4a-Cyclopropyl-1-(4-fluorophenyl)-5-hydroxy-1,4,4a,5,6,7-hexahydrocyclopenta[f]indazol-5-yl]ethyl}-4-methoxypyridine-3-carboxamide], for which the maximum response (Emax) came to 23% and the pEC50 is 7.46.
